Source: patent publication US20080242622A1, “Identification of genetic alterations that modulate drug sensitivity in cancer treatments” (Cold Spring Harbor Laboratory, priority 2007, published 2008)
“And” between values parts separate entries of the source, which are not always exact repeats. Equal values may be shown once.

Experiments:
[1] = system: shTop1 2215 relapsed tumor #4 cells; test: Ex vivo viability of relapsed tumor cells (propidium iodide exclusion flow cytometry); format: cell-based, mice; conditions: treated ex-vivo for 24 hours
From the text: Viability, measured by propidium iodide exclusion flow cytometry, is plotted relative to untreated cells.

[2] = system: Eμ-Myc Arf^−/− lymphoma cells; test: Apoptotic response / in vitro viability of lymphoma cells to doxorubicin; format: cell-based, murine; conditions: Mus musculus; apoptotic response within 24 hours
Method: Competition and viability assays were performed according to the following protocols. 2 days post infection, lymphoma cells were split into replicate wells of 500,000 cells in 12 well plates. Following 24 hour treatments with a range of drug doses, the GFP positive percentage was quantified in the surviving cell population using a BD LSRII flow cytometer. The live cell population was gated via a forward scatter (FSC) versus side scatter (SSC) plotting. […] For in vitro cell viability assays, lymphoma cells were treated in triplicate at the indicated doses of doxorubicin/camptothecin. Viability was determined after 24 hours by an FSC versus SSC gate and plotted relative to untreated viability.

[3] = congestive heart failure, dilated cardiomyopathy, death; cited from earlier work

SMILES	drug resistance of Top2A down-regulated relapse compared to control primary tumor [1]	IC50 [2]	cumulative dose at which risks of cardiac side effects dramatically increase [3] [mg/m^2]
COc1cccc2c1C(=O)c1c(O)c3c(c(O)c1C2=O)C[C@@](O)(C(=O)CO)C[C@@H]3O[C@H]1C[C@H](N)[C@H](O)[C@H](C)O1 [doxorubicin]	doxorubicin resistance	~0.007 µg/mL and ~16 nM	≥ 550
N.N.[Cl][Pt][Cl] [cisplatin]	not cross-resistance to cisplatin	–	–
